From patent publication EP0670315A1, “Triazole oxime derivatives having antimycotic acitivity” (priority 1994, dated 1995)
In brackets after ≈: the same amount, converted by molar mass. Like-named read-outs stand apart in the source and are kept apart here.

Columns and labels:
[1] = tested on: Candida albicans strain IFM40009; assay: Treatment of infection, protocol 2: mice infected with Candida albicans, oral treatment, survival; assay type: in vivo; details: ICR male mice, i.v. infection 1 × 10⁶ cells, oral once after an hour of infection, survival at 7th day, Litchfield-Wilcoxon
Protocol: (§1) Mice infected with Candida albicans were administered selected compounds of the invention orally and their therapeutic effect was measured. Stated specifically, ICR male mice (4-wk old) in groups each consisting of 10 animals were injected with Candida albicans strain IFM40009 by injecting it into the tail vein at a concentration of 1 × 10⁶ cells per animal. Each test compound was administered orally to the mice once after an hour of infection. The number of mice that survived at the 7th day of the infection was counted (the day of infection was day "zero") and the ED₅₀ of each test compound was calculated by the Litchfield-Wilcoxon method to estimate its therapeutic effect.

[2] = tested on: Aspergillus fumigatus strain IFM0063; assay: Minimum Inhibitory Concentration (MIC), agar plate dilution method; assay type: cell-based; details: Sabouraud's dextrose agar, 30°C for 2 days, visual growth
Protocol: (§2) MIC measurements were conducted by an agar plate dilution method. Stated specifically, Aspergillus fumigatus strains IFM0063 and IFM4942 were cultured on a potato dextrose agar medium at 27°C for 10 days, and the growing conidia were suspended in a sterile physiological saline containing 0.05% Tween 80 to give a concentration of 10⁸ - 10⁹ conidia per ml. The suspension was conditioned in a Sabouraud's dextrose broth medium at a concentration of 10⁵ spores per ml and a 5-µl aliquot of the culture was inoculated into a drug-containing Sabouraud's dextrose agar medium and cultured at 30°C for 2 days. The growth of fungi was observed visually and the minimum concentration of the test drug that could inhibit the fungal growth was designated as its MIC.

[3] = tested on: Aspergillus fumigatus strain IFM4942; assay: as above; assay type: cell-based; details: Sabouraud's dextrose agar, 30°C for 2 days, visual growth
Protocol: as §2

[4] = tested on: Candida albicans strain IFM40009; assay: Treatment of infection, protocol 3: cyclophosphamide-immunosuppressed mice infected with Candida albicans, oral treatment, survival; assay type: in vivo; details: ICR male mice immunosuppressed with cyclophosphamide 100 mg/kg i.p. twice, i.v. infection 1 × 10⁶ cells, oral once after an hour of infection, survival at 7th day, read-out: ED₅₀
Protocol: Experimentally prepared immunosuppressed mice were infected with Candida albicans; they were then administered selected compounds of the invention orally and the therapeutic effect of the compounds was measured.
Stated specifically, ICR male mice (4-wk old) in groups each consisting of 10 animals were administered cyclophosphamide intraperitoneally at a dose of 100 mg/kg; four days later, the mice were similarly administered cyclophosphamide intraperitoneally to be rendered experimentally immunosuppressed. Simultaneously with the second shot of cyclophosphamide, Candida albicans strain IFM40009 was administered to the tail vein of each animal at a concentration of 1 × 10⁶ cells per animal to induce infection. Each test compound was administered orally to the mice once after an hour of infection.
The number of mice that survived at the 7th day of the infection was counted (the day of infection was day "zero") and the ED₅₀ of each test compound was calculated by the Litchfield-Wilcoxon method to estimate its therapeutic effect.

[5] = tested on: Aspergillus fumigatus strain IFM41944; assay: Treatment of infection, protocol 1: mice infected with Aspergillus fumigatus, oral treatment, survival; assay type: in vivo; details: for ED50: Aspergillus fumigatus, IFM41944, ICR male mice, i.v. infection 1 × 10⁷ conidia, oral one hour after infection and following four days once a day, survival at 7th day, Litchfield-Wilcoxon, read-out: ED₅₀
Protocol: as §1, with “with Aspergillus fumigatus” for “with Candida albicans”, “strain IFM41944” for “strain IFM40009”, “× 10⁷ conidia” for “× 10⁶ cells”, “mice one hour” for “mice once”, “after the infection and for the following four continuous days on a once-a-day basis.” for “after an hour of infection.”

[6] = Toxicity test, repeated oral administration to mice; assay type: in vivo; details: 4-wk old mice, 5 consecutive days, 100 mg/kg
Protocol: The four selected compounds of the invention (those prepared in Examples 1, 2, 9 and 30) were administered orally to 4-wk old mice for 5 consecutive days at a dose of 100 mg/kg.

[7] = Solubility (usefulness as injections); assay type: physicochemical
[8] = reported in prior art; cited from earlier work
[9] = Aspergillus fumigatus, IFM0063, 48 h, read-out: MIC
[10] = Aspergillus fumigatus, IFM4942, 48 h, read-out: MIC

| SMILES | MIC [2, 9] [µg/mL] | MIC [3, 10] [µg/mL] | ED50 [1] [mg/kg] | further results |
| --- | --- | --- | --- | --- |
| COC(C)(C)ON=C(C(C)C)C1(C(O)(Cn2cncn2)c2ccc(F)cc2F)CC1 (centres unmarked) [Example 74, 1-[1-[1-(2,4-difluorophenyl)-1-hydroxy-2-(1H-1,2,4-triazol-1-yl)ethyl]cyclopropyl]-2-methyl-1-propanone O-(1-methoxy-1-methylethyl)oxime] |  |  | 8.9 |  |
| CCCC(=NOCn1cncn1)C1(C(O)(Cn2cncn2)c2ccc(F)cc2F)CC1 (centres unmarked) [Example 46] |  |  | 15.7 |  |
| COC(C)ON=C(C(C)C)C1(C(O)(Cn2cncn2)c2ccc(F)cc2F)CC1 (centres unmarked) [Example 75, 1-[1-[1-(2,4-difluorophenyl)-1-hydroxy-2-(1H-1,2,4-triazol-1-yl)ethyl]cyclopropyl]-2-methyl-1-propanone O-(1-methoxyethyl)oxime] |  |  | 8.6 |  |
| CCC(=NOCOC)C1(C(O)(Cn2cncn2)c2ccc(F)cc2F)CC1 (centres unmarked) [Example 10] | 6.25 (≈ 16.4 µM) | 12.5 (≈ 32.9 µM) |  |  |
| OC(Cn1cncn1)(Cn1cncn1)c1ccc(F)cc1F [Fluconazole, fluconazole, reference compound] | > 100 | > 100 | 11.7 | ED50 [4]: 54.4 mg/kg; ED50 [5]: > 100 mg/kg; antimycotic action in Aspergillus fumigatus infected animal models ([5]; doses up to 100 mg/kg, oral, mice): did not show any antimycotic action |
| CCCC(=NOCOC)C1(C(O)(Cn2cncn2)c2ccc(F)cc2F)CC1 (centres unmarked) [Example 8] | 12.5 (≈ 31.7 µM) | 25 (≈ 63.4 µM) |  | ED50 [5]: 27.7 mg/kg |
| CC(C)C(=NOCn1cncn1)C1(C(O)(Cn2cncn2)c2ccc(F)cc2F)CC1 (centres unmarked) [Example 30, 1-[1-[1-(2,4-difluorophenyl)-1-hydroxy-2-(1H-1,2,4-triazol-1-yl)ethyl]cyclopropyl]-2-methyl-1-propanone O-[(1H-1,2,4-triazol-1-yl)methyl]oxime] |  |  |  | ED50 [5]: 43.4 mg/kg; evidence for abnormality [6]: no evidence for abnormality; solubility [7]: good enough solubility to be useful as injections |
| COCON=C(C(C)C)C1(C(O)(Cn2cncn2)c2ccc(F)cc2F)CC1 (single isomer, unassigned; (-)) [Example 4, (-)-1-[1-[1-(2,4-difluorophenyl)-1-hydroxy-2-(1H-1,2,4-triazol-1-yl)ethyl]cyclopropyl]-2-methyl-1-propanone O-(methoxymethyl)oxime] |  |  |  | MIC [2]: 12.5 µg/mL (≈ 31.7 µM); MIC [3]: 12.5 µg/mL (≈ 31.7 µM) |
| COC(C)(OC)ON=C(C(C)C)C1(C(O)(Cn2cncn2)c2ccc(F)cc2F)CC1 (centres unmarked) [Example 73, 1-[1-[1-(2,4-difluorophenyl)-1-hydroxy-2-(1H-1,2,4-triazol-1-yl)ethyl]cyclopropyl]-2-methyl-1-propanone O-(1-dimethoxyethyl)oxime] |  |  | 5.8 |  |
| CON=CC(C)(C)C(O)(Cn1cncn1)c1ccc(Cl)cc1 (racemic) [Bay R 3783, (±)-3-(4-chlorophenyl)-2,2-dimethyl-3-hydroxy-4-(1,2,4-triazole-1-yl)butanol-oxime O-methylether] |  |  |  | hepatotoxicity as a side effect [8]: has hepatotoxicity as a side effect |
| COC(OC)ON=C(C(C)C)C1(C(O)(Cn2cncn2)c2ccc(F)cc2F)CC1 (centres unmarked) [Example 72, 1-[1-[1-(2,4-difluorophenyl)-1-hydroxy-2-(1H-1,2,4-triazol-1-yl)ethyl]cyclopropyl]-2-methyl-1-propanone O-(dimethoxymethyl)oxime] |  |  | 13.5 |  |
| CCC(C)n1ncn(-c2ccc(N3CCN(c4ccc(OCC5COC(Cn6cncn6)(c6ccc(Cl)cc6Cl)O5)cc4)CC3)cc2)c1=O (centres unmarked) [Itraconazole, itraconazole, reference compound] |  |  |  | ED50 [5]: > 100 mg/kg |
| CCC(=NOCn1cncn1)C1(C(O)(Cn2cncn2)c2ccc(F)cc2F)CC1 (centres unmarked) [Example 58] |  |  | 13.2 |  |
| CON=C(C(C)C)C1(C(O)(Cn2cncn2)c2ccc(F)cc2F)CC1 (single isomer, unassigned; (-)) [Example 6, (-)-1-[1-[1-(2,4-difluorophenyl)-1-hydroxy-2-(1H-1,2,4-triazol-1-yl)ethyl]cyclopropyl]-2-methyl-1-propanone O-methyl oxime] | 3.13 (≈ 8.59 µM) | 3.13 (≈ 8.59 µM) |  |  |
| COCON=C(C(C)C)C1(C(O)(Cn2cncn2)c2ccc(F)cc2F)CC1 (centres unmarked) [Example 1, 1-[1-[1-(2,4-difluorophenyl)-1-hydroxy-2-(1H-1,2,4-triazol-1-yl)ethyl]cyclopropyl]-2-methyl-1-propanone O-(methoxymethyl)oxime] | 25 (≈ 63.4 µM) | 25 (≈ 63.4 µM) |  | ED50 [4]: 4.9 mg/kg; ED50 [5]: 30.3 mg/kg; evidence for abnormality [6]: no evidence for abnormality |
| CCCC(=NOC)C1(C(O)(Cn2cncn2)c2ccc(F)cc2F)CC1 (centres unmarked) [Example 9] | 6.25 (≈ 17.2 µM) | 6.25 (≈ 17.2 µM) |  | ED50 [5]: 20.2 mg/kg; evidence for abnormality [6]: no evidence for abnormality |
| CCC(=NOC)C1(C(O)(Cn2cncn2)c2ccc(F)cc2F)CC1 (centres unmarked) [Example 11] | 3.13 (≈ 8.93 µM) | 3.13 (≈ 8.93 µM) |  |  |

The next lines start with results.

| MIC [2, 9] [µg/mL] | MIC [3, 10] [µg/mL] | SMILES | ED50 [1] [mg/kg] | further results |
| --- | --- | --- | --- | --- |
| 3.13 (≈ 9.25 µM) | 3.13 (≈ 9.25 µM) | CON=C(C)C(C)(C)C(O)(Cn1cncn1)c1ccc(F)cc1F (centres unmarked) [Example 21] |  |  |
| 6.25 (≈ 19.3 µM) | 12.5 (≈ 38.5 µM) | CC(=NO)C(C)(C)C(O)(Cn1cncn1)c1ccc(F)cc1F (centres unmarked) [Example 29] |  |  |
| 12.5 (≈ 30.5 µM) | 12.5 (≈ 30.5 µM) | CSCON=C(C(C)C)C1(C(O)(Cn2cncn2)c2ccc(F)cc2F)CC1 (centres unmarked) [Example 41] |  |  |
| 6.25 (≈ 14.6 µM) | 6.25 (≈ 14.6 µM) | CCC(=NOCc1ccncc1)C1(C(O)(Cn2cncn2)c2ccc(F)cc2F)CC1 (centres unmarked) [Example 59] | 10.7 |  |
| 12.5 (≈ 27.3 µM) | 12.5 (≈ 27.3 µM) | CC(C)C(=NOCCBr)C1(C(O)(Cn2cncn2)c2ccc(F)cc2F)CC1 (centres unmarked) [Example 44, 1-[1-[1-(2,4-difluorophenyl)-1-hydroxy-2-(1H-1,2,4-triazol-1-yl)ethyl]cyclopropyl]-2-methyl-1-propanone O-(2-bromoethyl)oxime] | 14.6 |  |
| 25 (≈ 63.7 µM) | 25 (≈ 63.7 µM) | CCCON=C(C(C)C)C1(C(O)(Cn2cncn2)c2ccc(F)cc2F)CC1 (centres unmarked) [Example 42] |  |  |
| 12.5 (≈ 32.1 µM) | 12.5 (≈ 32.1 µM) | CC(C)C(=NOCC#N)C1(C(O)(Cn2cncn2)c2ccc(F)cc2F)CC1 (centres unmarked) [Example 40] |  |  |
| 12.5 (≈ 31.9 µM) | 12.5 (≈ 31.9 µM) | COCON=C(C1CC1)C1(C(O)(Cn2cncn2)c2ccc(F)cc2F)CC1 (centres unmarked) [Example 15] |  |  |
| 1.56 (≈ 3.93 µM) | 3.13 (≈ 7.89 µM) | CCC(=NOCSC)C1(C(O)(Cn2cncn2)c2ccc(F)cc2F)CC1 (centres unmarked) [Example 53] | 13.5 |  |
| 3.13 (≈ 7.06 µM) | 3.13 (≈ 7.06 µM) | CCC(=NOCCBr)C1(C(O)(Cn2cncn2)c2ccc(F)cc2F)CC1 (centres unmarked) [Example 55] | 14.7 |  |
| 1.56 (≈ 4.43 µM) | 3.13 (≈ 8.88 µM) | CCC(=NOC)C(C)(C)C(O)(Cn1cncn1)c1ccc(F)cc1F (centres unmarked) [Example 22] |  |  |
| 3.13 (≈ 8.36 µM) | 3.13 (≈ 8.36 µM) | C#CCON=C(CC)C1(C(O)(Cn2cncn2)c2ccc(F)cc2F)CC1 (centres unmarked) [Example 51] | 11.3 |  |
| 6.25 (≈ 15.9 µM) | 6.25 (≈ 15.9 µM) | CCCCON=C(CC)C1(C(O)(Cn2cncn2)c2ccc(F)cc2F)CC1 (centres unmarked) [Example 56] | 14.7 |  |
| 12.5 (≈ 33 µM) | 12.5 (≈ 33 µM) | CCON=C(C(C)C)C1(C(O)(Cn2cncn2)c2ccc(F)cc2F)CC1 (centres unmarked) [Example 38] |  |  |
